Assay results: PMC6946680, “Modulation of brain cation-Cl^− cotransport via the SPAK kinase inhibitor ZT-1a” (Nature Communications, 2020)
Several values for one entry are separate records, joined by “and”; a condition that tells them apart may be missing. Equal values may be shown once.

Key:
KCC1 pThr927/pThr983 = experiment: Choroid plexus KCC1 phospho-IP/immunoblot in rat IVH model; type: in vivo
[1] = ZT-1a content in plasma and brain of sham and tMCAO mice (LC-MS/MS); type: in vivo, mouse; conditions: for plasma ZT-1a concentration: Fig 6e; for plasma ZT-1a concentration / Brain tissue ZT-1a concentration: individual animals; for Brain tissue ZT-1a concentration: Fig 6f
NKCC1 = experiment: 86Rb+ uptake assay for NKCC1 activity in HEK-293 cells; type: cell-based; set-up: key to 86Rb+ uptake: 86Rb+ uptake in CPM per mg protein; conditions: for 86Rb+ uptake: replicates
Method: Thirty-six hours post transfection, cells were exposed for 30 min to either control isotonic conditions or hypotonic low [Cl^−] conditions (to activate the SPAK/OSR1 pathway), and then treated for an additional 30 min in the same conditions with the indicated ZT-1a concentrations in the presence of 1 mM ouabain and 0.1 mM bumetanide. Ten-minute ^86Rb^+ uptake values were quantified by scintillation counting, normalized per mg protein for each condition, and plotted for both isotonic and hypotonic conditions. ***p < 0.001; **p < 0.01; *p < 0.05; ns—nonsignificant [by one-way ANOVA with post hoc testing (n = 6, error bars represent the mean ± SEM)]. b ^86Rb^+ uptake assays in the presence of ZT-1a measure transport activity of NKCC1. […] Thirty-six hours post transfection, cells were exposed for 30 min to either control isotonic conditions or hypotonic low [Cl^−] conditions (to activate the SPAK/OSR1 pathway), and then treated in the same conditions for an additional 30 min with 10 µM ZT-1a or 0.1 mM bumetanide (Bum) in the presence of 1 mM ouabain (Na^+/K^+-ATPase inhibitor). ^86Rb^+ uptake was allowed to proceed for 10 min and was then quantified by scintillation counting. ^86Rb^+ uptake CPMs were normalized per mg protein and plotted for both isotonic and hypotonic conditions. […] Thirty-six hours post transfection, cells were exposed for 30 min to either control isotonic conditions or hypotonic low [Cl^−] conditions (to activate the SPAK/OSR1 pathway), and then treated for an additional 30 min in the same conditions with the indicated ZT-1a concentrations in the presence of 1 mM ouabain. Ten-minute ^86Rb^+ uptake values were quantified by scintillation counting, normalized per mg protein for each condition, and plotted for both isotonic and hypotonic conditions. ***p < 0.001; **p < 0.01; *p < 0.05; ns—nonsignificant [by one-way ANOVA with post hoc testing (n = 6, error bars represent the mean ± SEM)].
This stimulating medium was then removed and replaced with isotonic medium containing inhibitors plus 2 µCi/ml ^86Rb^+. After incubation for 10 min at 37 °C, cells were rapidly washed three times with the respective ice-cold nonradioactive medium. Washed cells were lysed in 300 µl of ice-cold lysis buffer and ^86Rb^+ uptake was quantitated by liquid scintillation counting (PerkinElmer).

pKCC3 pThr991/pThr1048 = experiment: Immunoblot of pKCC3 in ischemic mouse brain membrane fractions; conditions: for KCC3 / Na-K pumb / pThr991 / KCC3 / pThr991 / Na-K pumb / pThr1048 / KCC3 / pThr1048 / Na-K pumb: Fig 8, individual samples
[2] = test system: mouse primary cortical neurons; experiment: Cell volume measurement (calcein-AM) under hyperosmotic stress, primary cortical neurons; conditions: Fig 5b trace

## Cc1cc(C(C#N)c2ccc(Cl)cc2)c(Cl)cc1NC(=O)c1cc(Cl)ccc1O (stereo not drawn) [ZT-1a, 5-chloro-N-(5-chloro-4-((4-chlorophenyl)(cyano)methyl)-2-methylphenyl)-2-hydroxybenzamide]
KCC1 pThr927/pThr983; rat CPe 48 h post IVH + 1a, replicates
  KCC1 pThr983 / Actin: 0.273 and 0.737 and 0.782 and 0.302 and 0.649 and 0.721
KCC1 pThr927/pThr983; rat CPe 48 h post IVH + 1a, replicates (Fig 4 source data)
  KCC1 pThr927 / Actin: 0.027 and 0.029 and 0.034 and 0.025 and 0.037 and 0.024
KCC1 pThr927/pThr983; rat CPe, ICV ZT-1a
  reduction of post-IVH KCC1 phosphorylation at Thr927: 12 fold
  reduction of post-IVH KCC1 phosphorylation at Thr983: 3.4 fold
[1]; 2 h after 5 mg/kg i.p.
  ZT-1a concentration in CL and IL hemispheres of ischemic brains relative to sham brains: ~ 1.8 fold
  plasma ZT-1a levels in ischemic versus non-ischemic sham mice: indistinguishable
[1]; Sham mice
  plasma ZT-1a concentration: 329.00 ng/mL and 282.00 ng/mL and 324.00 ng/mL and 520.00 ng/mL and 751.00 ng/mL and 743.08 ng/mL and 457.88 ng/mL and 359.25 ng/mL and 143.14 ng/mL and 588.55 ng/mL and 379.00 ng/mL
[1]; tMCAO mice
  plasma ZT-1a concentration: 1494.00 ng/mL and 655.00 ng/mL and 82.00 ng/mL and 678.79 ng/mL and 587.05 ng/mL and 302.56 ng/mL and 827.38 ng/mL and 531.10 ng/mL and 662.00 ng/mL
[1]; sham, CL hemisphere
  Brain tissue ZT-1a concentration: 221.00 ng/gm tissue and 107.00 ng/gm tissue and 97.00 ng/gm tissue and 50.00 ng/gm tissue and 133.00 ng/gm tissue and 120.00 ng/gm tissue and 67.00 ng/gm tissue and 61.00 ng/gm tissue and 77.00 ng/gm tissue and 131.00 ng/gm tissue
[1]; sham, IL hemisphere
  Brain tissue ZT-1a concentration: 174.00 ng/gm tissue and 130.00 ng/gm tissue and 100.00 ng/gm tissue and 155.00 ng/gm tissue and 76.00 ng/gm tissue and 115.00 ng/gm tissue and 89.00 ng/gm tissue and 78.00 ng/gm tissue and 59.00 ng/gm tissue and 139.00 ng/gm tissue
[1]; tMCAO, CL hemisphere
  Brain tissue ZT-1a concentration: 161.00 ng/gm tissue and 118.00 ng/gm tissue and 139.00 ng/gm tissue and 285.00 ng/gm tissue and 269.00 ng/gm tissue and 132.00 ng/gm tissue and 326.00 ng/gm tissue and 170.00 ng/gm tissue and 163.00 ng/gm tissue and 133.00 ng/gm tissue and 245.00 ng/gm tissue
[1]; tMCAO, IL hemisphere
  Brain tissue ZT-1a concentration: 217.00 ng/gm tissue and 131.00 ng/gm tissue and 171.00 ng/gm tissue and 369.00 ng/gm tissue and 215.00 ng/gm tissue and 238.00 ng/gm tissue and 154.00 ng/gm tissue and 150.00 ng/gm tissue and 199.00 ng/gm tissue
[1]; normal naive mice
  penetration across the healthy BBB: minimal
NKCC1; Fig 3b right, NKCC1, ZT-1a 1 uM, Hypotonic low Cl-
  86Rb+ uptake: 31312.2 and 30912.6 and 28110.4 and 29118.3 and 28103.5 and 29176.8
NKCC1; Fig 3b right, NKCC1, ZT-1a 1 uM, Isotonic control
  86Rb+ uptake: 5076.2 and 4867.3 and 5812.7 and 4239.7 and 5129.6 and 5519.2
NKCC1; Fig 3b right, NKCC1, ZT-1a 3 uM, Hypotonic low Cl-
  86Rb+ uptake: 14078.7 and 13156.2 and 15002.4 and 14182.5 and 14354.3 and 14621.6
NKCC1; Fig 3b right, NKCC1, ZT-1a 3 uM, Isotonic control
  86Rb+ uptake: 3812.1 and 3286.7 and 4513.3 and 4013.5 and 3012.8 and 3586.3
NKCC1; Fig 3b right, NKCC1, ZT-1a 10 uM, Hypotonic low Cl-
  86Rb+ uptake: 3712.6 and 5014.2 and 4381.3 and 3518.2 and 4604.5 and 3837.1
NKCC1; Fig 3b right, NKCC1, ZT-1a 10 uM, Isotonic control
  86Rb+ uptake: 1476.7 and 1378.3 and 1409.2 and 1215.2 and 1522.8 and 1368.4
NKCC1; Fig 3b, NKCC1 + 1a (10 µM), Hypotonic low Cl-
  86Rb+ uptake: 7709.2 and 9015.3 and 7102.3 and 8791.5 and 8682.5 and 8108.1
NKCC1; Fig 3b, NKCC1 + 1a (10 µM), Isotonic control
  86Rb+ uptake: 1446.7 and 1247.2 and 1369.6 and 1195.7 and 1501.2 and 1382.8
NKCC1; ZT-1a at concentration > 1 µM, isotonic or hypotonic low Cl−
  NKCC1-mediated K+ influx: significantly inhibited
pKCC3 pThr991/pThr1048; CL hemisphere
  KCC3 / Na-K pumb: 1.336 and 1.197 and 1.267 and 1.158 and 1.265 and 1.361
  pThr991 / KCC3: 1.218 and 1.115 and 1.236 and 1.366 and 1.064 and 1.128
  pThr991 / Na-K pumb: 1.627 and 1.334 and 1.565 and 1.429 and 1.509 and 1.618
  pThr1048 / KCC3: 1.138 and 0.971 and 0.993 and 1.217 and 1.116 and 0.937
  pThr1048 / Na-K pumb: 1.52 and 1.162 and 1.258 and 1.37 and 1.22 and 1.531
pKCC3 pThr991/pThr1048; IL hemisphere
  KCC3 / Na-K pumb: 1.177 and 1.337 and 1.176 and 1.207 and 1.288 and 1.143
  pThr991 / KCC3: 0.804 and 0.867 and 0.759 and 0.638 and 0.69 and 0.743
  pThr991 / Na-K pumb: 0.946 and 0.897 and 1.023 and 0.942 and 0.889 and 0.849
  pThr1048 / KCC3: 0.646 and 0.719 and 0.618 and 0.673 and 0.737 and 0.686
  pThr1048 / Na-K pumb: 0.76 and 0.987 and 0.854 and 0.792 and 0.949 and 0.785
pKCC3 pThr991/pThr1048; compared with vehicle-control mice
  reduction of ischemia-induced elevation of pKCC3: 30%
pKCC3 pThr991/pThr1048; post-stroke ZT-1a 5 mg/kg, 24 h reperfusion
  ischemia-induced increase of pKCC3: prevented
[2]; Time 1.00403
  Cell water (relative change): 1.0915 relative change
[2]; Time 2.00427
  Cell water (relative change): 1.001 relative change
[2]; Time 3.00425
  Cell water (relative change): 0.9646 relative change
[2]; Time 4.00423
  Cell water (relative change): 0.9689 relative change
[2]; Time 5.0042
  Cell water (relative change): 0.9837 relative change
[2]; Time 6.00445
  Cell water (relative change): 0.7025 relative change
[2]; Time 7.00442
  Cell water (relative change): 0.636 relative change
[2]; Time 8.00435
  Cell water (relative change): 0.6336 relative change
[2]; Time 9.00452
  Cell water (relative change): 0.5971 relative change
[2]; Time 10.0046
  Cell water (relative change): 0.5748 relative change
[2]; Time 11.0045
  Cell water (relative change): 0.5229 relative change
[2]; Time 12.0045
  Cell water (relative change): 0.4882 relative change
[2]; Time 13.0045
  Cell water (relative change): 0.4496 relative change
[2]; Time 14.0045
  Cell water (relative change): 0.4313 relative change
[2]; Time 15.0047
  Cell water (relative change): 0.4596 relative change
[2]; Time 16.0047
  Cell water (relative change): 0.433 relative change
[2]; Time 17.0047
  Cell water (relative change): 0.4137 relative change
[2]; Time 18.0047
  Cell water (relative change): 0.4143 relative change
[2]; Time 19.0049
  Cell water (relative change): 0.386 relative change
[2]; Time 20.0049
  Cell water (relative change): 0.3846 relative change
